Laboratory results as given in patent US9951045B2, “Indazole compounds as 5-HT4 receptor agonists” (SUVEN LIFE SCIENCES LIMITED, priority 2013, dated 2018).
Counter-ions that a name gives are not always drawn.

Molecular target: T1, recombinant human 5-HT4 receptor (Homo sapiens, UniProt Q13639)
T1 construct: expressed in transfected cells
Experiment: Determination of EC50 values for 5-HT4 receptor (CHO cells, pCRE-Luc reporter)
Format: cell-based
Settings: luciferase reporter, 4 hours incubation, read-out: 5-HT4 receptor agonistic binding in-vitro EC50
Procedure: A stable CHO cell line expressing recombinant human 5-HT4 receptor and pCRE-Luc reporter system was used for cell-based assay. The assay offers a non-radioactive based approach to determine binding of a compound to GPCRs. In this specific assay, the level of intracellular cyclic AMP, which is modulated by activation, or inhibition of the receptor is measured. The recombinant cells harbor luciferase reporter gene under the control of cAMP response element.
The above cells were grown in 96 well clear bottom white plates in Hams F12 medium containing 10% fetal bovine serum (FBS). Prior to the addition of compounds or standard agonist, cells were serum starved overnight. Increasing concentrations of test compounds were added in OptiMEM medium to the cells. The incubation was continued at 37° C. in CO2 incubator for 4 hours. Medium was removed and cells were washed with phosphate buffered saline. The cells were lysed and luciferase activity was measured in a Luminometer. Luminescence units were plotted against the compound concentrations using Graphpad software. EC50 values of the compounds were defined as the concentration required in stimulating the luciferase activity by 50%.

T1 sequence (Q13639 whole entry): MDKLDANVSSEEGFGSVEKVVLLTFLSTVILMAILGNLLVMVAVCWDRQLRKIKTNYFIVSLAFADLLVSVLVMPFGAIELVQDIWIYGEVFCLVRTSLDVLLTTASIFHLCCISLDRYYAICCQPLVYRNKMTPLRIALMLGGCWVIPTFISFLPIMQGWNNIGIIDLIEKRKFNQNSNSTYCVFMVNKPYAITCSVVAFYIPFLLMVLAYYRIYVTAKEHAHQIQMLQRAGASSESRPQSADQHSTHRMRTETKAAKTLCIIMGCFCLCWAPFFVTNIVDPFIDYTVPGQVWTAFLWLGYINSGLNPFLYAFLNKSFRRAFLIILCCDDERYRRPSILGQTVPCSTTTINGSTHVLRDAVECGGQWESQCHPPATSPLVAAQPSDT

Row | EC50 [nM] | Compound
1 | ≤ 1 | CCn1cc2cccc(C(=O)NCC3CCN(CCCOC)CC3)c2n1 [Example 4, N—[N-(3-methoxypropyl)piperidin-4-ylmethyl]-2-ethyl-2H-indazole-7-carboxamide fumarate]
2 | 1.1 to 5 | CCn1cc2cccc(C(=O)NCC3C4CN(CCCOC)CC34)c2n1 (stereo not shown) [Example 5, N—[N-(3-methoxypropyl)-3-azabicyclo[3.1.0]hexane-6-ylmethyl]-2-ethyl-2H-indazole-7-carboxamide oxalate]
3 | ≤ 1 | CC(C)n1cc2cccc(C(=O)NCC3CCN(CC(C)(C)CO)CC3)c2n1 [Example 6, N—[N-(3-hydroxy-2,2-dimethylpropyl)piperidin-4-ylmethyl]-2-isopropyl-2H-indazole-7-carboxamide L(+) Tartarate]
4 | 5.1 to 20 | CC(C)n1cc2cccc(C(=O)NCC3CCN(CCF)CC3)c2n1 [Example 7, N—[N-(2-fluoroethyl)piperidin-4-ylmethyl]-2-isopropyl-2H-indazole-7-carboxamide]
5 | ≤ 1 | CC(C)n1cc2cccc(C(=O)NCC3CCN(CC4(O)CCCC4)CC3)c2n1 [Example 11, N—[N-(1-hydroxycyclopentylmethyl)piperidin-4-ylmethyl]-2-isopropyl-2H-indazole-7-carboxamide L(+) tartarate]
6 | ≤ 1 | CC(C)N1CCC(CNC(=O)c2cccc3cn(C(C)C)nc23)CC1 [Example 13, N—(N-isopropylpiperidin-4-ylmethyl)-2-isopropyl-2H-indazole-7-carboxamide fumarate]
7 | ≤ 1 | CC(C)n1cc2cccc(C(=O)NCC3CCN(C4CCC4)CC3)c2n1 [Example 14, N—(N-cyclobutylpiperidin-4-ylmethyl)-2-isopropyl-2H-indazole-7-carboxamide fumarate]
8 | ≤ 1 | CC(C)n1cc2cccc(C(=O)NCC3CCN(C4CCCCC4)CC3)c2n1 [Example 15, N—(N-cyclohexylpiperidin-4-ylmethyl)-2-isopropyl-2H-indazole-7-carboxamide fumarate]
9 | ≤ 1 | CC(C)n1cc2cccc(C(=O)NCC3CCN(CC4(O)CCOCC4)CC3)c2n1 [Example 17, N—[N-(4-hydroxytetrahydropyran-4-ylmethyl)piperidin-4-ylmethyl]-2-isopropyl-2H-indazole-7-carboxamide fumarate]
10 | 5.1 to 20 | CCn1cc2cccc(C(=O)NCC3C4CN(C5CCOCC5)CC34)c2n1 (stereo not shown) [Example 18, N—[N-(tetrahydropyran-4-yl)-3-azabicyclo[3.1.0]hexane-6-ylmethyl]-2-ethyl-2H-indazole-7-carboxamide oxalate]
11 | 5.1 to 20 | CC(C)n1cc2cccc(C(=O)NC3CCN(CC4CC4)CC3)c2n1 [Example 20, N—(N-cyclopropylmethylpiperidine-4-yl)-2-isopropyl-2H-indazole-7-carboxamide fumarate]
12 | 5.1 to 20 | CC(C)n1cc2cccc(C(=O)NC3CCN(CC4CCC4)CC3)c2n1 [Example 21, N—(N-cyclobutylmethylpiperidine-4-yl)-2-isopropyl-2H-indazole-7-carboxamide fumarate]
13 | ≤ 1 | CC(C)n1cc2cccc(C(=O)NCC3CCN(CC4CCOC4)CC3)c2n1 (stereo not shown) [Example 23, N—[(N-tetrahydrofuran-3-ylmethyl)piperidin-4-ylmethyl]-2-isopropyl-2H-indazole-7-carboxamide]
14 | ≤ 1 | COCCCN1CCC(CNC(=O)c2cccc3cn(C(C)C)nc23)CC1 [Example 24, N—[N-(3-methoxypropyl)piperidin-4-ylmethyl]-2-isopropyl-2H-indazole-7-carboxamide fumarate]
15 | 1.1 to 5 | COCCN1CCC(CNC(=O)c2cccc3cn(C(C)C)nc23)CC1 [Example 25, N—[N-(2-methoxyethyl)piperidin-4-ylmethyl]-2-isopropyl-2H-indazole-7-carboxamide fumarate]
16 | 1.1 to 5 | COCCCN1CCC(O)(CNC(=O)c2cccc3cn(C(C)C)nc23)CC1 [Example 28, N—[N-(3-methoxypropyl)-4-hydroxypiperidin-4-ylmethyl]-2-isopropyl-2H-indazole-7-carboxamide fumarate]
17 | ≤ 1 | CC(C)n1cc2cccc(C(=O)NCC3CCN(CCC(C)(C)O)CC3)c2n1 [Example 29, N—[N-(3-Hydroxy-3-methylbutyl)piperidin-4-ylmethyl]-2-isopropyl-2H-indazole-7-carboxamide]

Further lines, the compound ahead of its results:

Row | Compound | EC50 [nM]
18 | CC(C)n1cc2cccc(C(=O)NCC3CN(Cc4ccccc4)CCO3)c2n1 (stereo not shown) [Example 8, N—[N-benzylmorpholin-2-ylmethyl]-2-isopropyl-2H-indazole-7-carboxamide fumarate] | 20.1 to 50
19 | CC(C)n1cc2cccc(C(=O)NCC3CN(CC4CCOCC4)CCO3)c2n1 (stereo not shown) [Example 9, N—[(N-tetrahydropyran-4-ylmethyl)morpholine-2-ylmethyl]-2-isopropyl-2H-indazole-7-carboxamide] | 5.1 to 20
20 | CC(C)n1cc2cccc(C(=O)NCC3C4CN(CC5CCOCC5)CC34)c2n1 (stereo not shown) [Example 10, N—[N-(tetrahydropyran-4-ylmethyl)-3-azabicyclo[3.1.0]hexane-6-ylmethyl]-2-isopropyl-2H-indazole-7-carboxamide] | 1.1 to 5
21 | CC(C)n1cc2cccc(C(=O)NCC3C4CN(C5CCOCC5)CC34)c2n1 (stereo not shown) [Example 12, N—[N-(tetrahydropyran-4-yl)-3-azabicyclo[3.1.0]hexane-6-ylmethyl]-2-isopropyl-2H-indazole-7-carboxamide] | 1.1 to 5
22 | CC(C)N1CC2C(CNC(=O)c3cccc4cn(C(C)C)nc34)C2C1 (stereo not shown) [Example 16, N—(N-isopropyl-3-azabicyclo[3.1.0]hexane-6-ylmethyl)-2-isopropyl-2H-indazole-7-carboxamide fumarate] | 1.1 to 5
23 | CC(C)N1CCC(NC(=O)c2cccc3cn(C(C)C)nc23)CC1 [Example 19, N—(N-isopropylpiperidine-4-yl)-2-isopropyl-2H-indazole-7-carboxamide fumarate] | 20.1 to 50
24 | CC(C)n1cc2cccc(C(=O)NCC3(F)CCN(CC4CCOCC4)CC3)c2n1 [Example 22, N—[(N-tetrahydropyran-4-ylmethyl)-4-fluoropiperidin-4-ylmethyl]-2-isopropyl-2H-indazole-7-carboxamide] | 1.1 to 5
25 | CC(C)n1cc2cccc(C(=O)NCC3(O)CCN(CC4CCOCC4)CC3)c2n1 [Example 26, N—[(N-tetrahydropyran-4-ylmethyl)-4-hydroxypiperidin-4-ylmethyl]-2-isopropyl-2H-indazole-7-carboxamide fumarate] | 1.1 to 5
26 | CC(C)n1cc2cccc(C(=O)NCC3(O)CCN(C4CCOCC4)CC3)c2n1 [Example 27, N—[(N-tetrahydropyran-4-yl)-4-hydroxypiperidin-4-ylmethyl]-2-isopropyl-2H-indazole-7-carboxamide fumarate] | 1.1 to 5
27 | CC(C)n1cc2cccc(C(=O)NCC3(O)CCN(CC(C)(C)O)CC3)c2n1 [Example 30, N—[N-(2-hydroxy-2-methylpropyl)-4-hydroxypiperidin-4-ylmethyl]-2-isopropyl-2H-indazole-7-carboxamide oxalate] | 1.1 to 5
28 | CC(C)n1cc2cccc(C(=O)NCC3(F)CCN(CC4(O)CCOCC4)CC3)c2n1 [Example 31, N—[N-(4-hydroxytetrahydropyran-4-ylmethyl)-4-fluoropiperidin-4-ylmethyl]-2-isopropyl-2H-indazole-7-carboxamide L(+) Tartarate] | 1.1 to 5
